Assays:
Rat [1] = assay: concentration in brain after dosing; conditions: 4 h; dosed: 2-Methyltetrahydrofuran; 40 mg/kg; iv; Male; Harlan Sprague Dawley
Rat [2] = assay: concentration in brain after dosing; conditions: 7 min; dosed: 2-Methyltetrahydrofuran; 40 mg/kg; iv; Male; Harlan Sprague Dawley
Rat [3] = assay: concentration in plasma after dosing; conditions: 0.2 h; dosed: 2-Methyltetrahydrofuran; 40 mg/kg; iv; Male; Harlan Sprague Dawley
Rat [4] = assay: concentration in brain after dosing; conditions: 1.5 h; dosed: 2-Methyltetrahydrofuran; 40 mg/kg; iv; Male; Harlan Sprague Dawley
Rat [5] = assay: concentration in brain after dosing; conditions: 1.5 h; dosed: 2-Methyltetrahydrofuran; 40 mg/kg; iv; Male; Harlan Sprague Dawley; remark: listed apart in the source
Rat [6] = assay: concentration in brain after dosing; conditions: 2 min; dosed: 2-Methyltetrahydrofuran; 40 mg/kg; iv; Female; Harlan Sprague Dawley
Rat [7] = assay: concentration in brain after dosing; conditions: 0.2 h; dosed: 2-Methyltetrahydrofuran; 40 mg/kg; iv; Male; Harlan Sprague Dawley
Rat [8] = assay: concentration in plasma after dosing; conditions: dosed: 678-39-7, 40 mg/kg, iv, Female, Harlan Sprague-Dawley
Rat [9] = assay: concentration in brain after dosing; conditions: 12 h; dosed: Fluorotelomer alcohol 8+2; 80 mg/kg; oral; Female; Harlan Sprague Dawley
Rat [10] = assay: concentration in plasma after dosing; conditions: 192 h; dosed: Fluorotelomer alcohol 8+2; 24 mg/kg; oral; Male; Harlan Sprague Dawley
Rat [11] = assay: concentration in plasma after dosing; conditions: dosed: 678-39-7, 40 mg/kg, iv, Male, F344
Rat [12] = assay: concentration in plasma after dosing; conditions: 3 h; dosed: 678-39-7; 40 mg/kg; iv; Male; F344
Rat [13] = assay: concentration in liver after dosing; conditions: 1 h; dosed: Fluorotelomer alcohol 8+2; 24 mg/kg; oral; Male; Harlan Sprague Dawley
Rat [14] = assay: concentration in brain after dosing; conditions: 6 h; dosed: Fluorotelomer alcohol 8+2; 24 mg/kg; oral; Male; Harlan Sprague Dawley
Rat [15] = assay: concentration in liver after dosing; conditions: 3 h; dosed: Fluorotelomer alcohol 8+2; 80 mg/kg; oral; Female; Harlan Sprague Dawley
Rat [16] = assay: concentration in plasma after dosing; conditions: 3 h; dosed: 678-39-7; 12 mg/kg; iv; Male; F344
Rat [17] = assay: concentration in plasma after dosing; conditions: 18 h; dosed: Gemfibrozil; 50 mg/kg; oral; Male; Sprague-Dawley
Rat [18] = assay: concentration in plasma after dosing; conditions: 15 h; dosed: Gemfibrozil; 50 mg/kg; oral; Male; Sprague-Dawley
Rat [19] = assay: concentration in plasma after dosing; conditions: 2 h; dosed: Gemfibrozil; 50 mg/kg; oral; Male; Sprague-Dawley
Rat [20] = assay: concentration in plasma after dosing; conditions: 10 min; dosed: Gemfibrozil; 4.29 mg/kg; oral; Male; Sprague-Dawley
Rat [21] = assay: concentration in plasma after dosing; conditions: 18 h; dosed: Gemfibrozil; 50 mg/kg; oral; Male; Sprague-Dawley; remark: listed apart in the source
Rat [22] = assay: concentration in plasma after dosing; conditions: 2 h; dosed: Gemfibrozil; 4.29 mg/kg; oral; Male; Sprague-Dawley
Rat [23] = assay: concentration in plasma after dosing; conditions: 10 h; dosed: Gemfibrozil; 4.29 mg/kg; oral; Male; Sprague-Dawley
Rat [24] = assay: concentration in plasma after dosing; conditions: 6 h; dosed: Gemfibrozil; 100 mg/kg; oral; Male; Sprague-Dawley
Rat [25] = assay: concentration in plasma after dosing; conditions: 24 h; dosed: Gemfibrozil; 4.29 mg/kg; oral; Male; Sprague-Dawley
Rat [26] = assay: concentration in plasma after dosing; conditions: 1 h; dosed: Perfluorohexanoic Acid; 40 mg/kg; iv; Male; F344
Rat [27] = assay: concentration in plasma after dosing; conditions: 0.75 h; dosed: Perfluorohexanoic Acid; 40 mg/kg; iv; Female; Harlan Sprague-Dawley
Rat [28] = assay: concentration in kidney after dosing; conditions: 1 h; dosed: Perfluorohexanoic Acid; 80 mg/kg; oral; Female; Harlan Sprague Dawley
Rat [29] = assay: concentration in brain after dosing; conditions: 3 h; dosed: Perfluorohexanoic Acid; 80 mg/kg; oral; Male; Harlan Sprague Dawley
Rat [30] = assay: concentration in plasma after dosing; conditions: 0.5 h; dosed: Perfluorohexanoic Acid; 40 mg/kg; iv; Male; F344
Rat [31] = assay: concentration in plasma after dosing; conditions: 1 h; dosed: Perfluorohexanoic Acid; 80 mg/kg; oral; Male; Harlan Sprague Dawley
Rat [32] = assay: concentration in brain after dosing; conditions: 1 h; dosed: Perfluorohexanoic Acid; 80 mg/kg; oral; Female; Harlan Sprague Dawley
Rat [33] = assay: concentration in kidney after dosing; conditions: 0.5 h; dosed: Perfluorohexanoic Acid; 80 mg/kg; oral; Male; Harlan Sprague Dawley
Rat [34] = assay: concentration in liver after dosing; conditions: 1848 h; dosed: Perfluorooctane Sulfonate; 2 mg/kg; oral; Female; Harlan Sprague Dawley
Rat [35] = assay: concentration in liver after dosing; conditions: 24 h; dosed: Perfluorooctane Sulfonate; 20 mg/kg; oral; Male; Harlan Sprague Dawley
Rat [36] = assay: concentration in plasma after dosing; conditions: dosed: Perfluorooctane Sulfonate, 2 mg/kg, iv, Female, F344
Rat [37] = assay: concentration in brain after dosing; conditions: 1848 h; dosed: Perfluorooctane Sulfonate; 20 mg/kg; oral; Male; Harlan Sprague Dawley
Rat [38] = assay: concentration in kidney after dosing; conditions: 1848 h; dosed: Perfluorooctane Sulfonate; 20 mg/kg; oral; Male; Harlan Sprague Dawley
Rat [39] = assay: concentration in liver after dosing; conditions: 6 h; dosed: Perfluorooctane Sulfonate; 20 mg/kg; oral; Male; Harlan Sprague Dawley
Rat [40] = assay: concentration in liver after dosing; conditions: 3360 h; dosed: Perfluorooctane Sulfonate; 2 mg/kg; oral; Female; Harlan Sprague Dawley

Structure (SMILES): CC1CCCO1 (centres undefined) [2-Methyltetrahydrofuran]
- concentration in brain (Rat [1]): 1.66 µg/mL
- concentration in brain (Rat [2]): 34 µg/mL
- concentration in plasma (Rat [3]): 36.1 µg/mL
- concentration in brain (Rat [4]): 6.25 µg/mL
- concentration in brain (Rat [5]): 7.51 µg/mL
- concentration in brain (Rat [6]): 38 µg/mL
- concentration in brain (Rat [7]): 26.5 µg/mL

Structure (SMILES): O=C(O)CCC(F)(F)C(F)(F)C(F)(F)C(F)(F)C(F)(F)C(F)(F)C(F)(F)F [Fluorotelomer acid 7+3]
- concentration in plasma (Rat [8]; 0.75 h): 929 ng/mL
- concentration in plasma (Rat [8]; 12 h): 368 ng/mL
- concentration in brain (Rat [9]): 432 ng/g
- concentration in plasma (Rat [10]): 62.9 ng/mL
- concentration in plasma (Rat [11]; 0.25 h): 84.2 ng/mL
- concentration in plasma (Rat [11]; 6 h): 820 ng/mL
- concentration in plasma (Rat [12]): 2370 ng/mL
- concentration in liver (Rat [13]): 693 ng/g
- concentration in brain (Rat [14]): 305 ng/g
- concentration in liver (Rat [15]): 11400 ng/g
- concentration in plasma (Rat [16]): 735 ng/mL

Structure (SMILES): Cc1ccc(C)c(OCCCC(C)(C)C(=O)O)c1 [Gemfibrozil]
- concentration in plasma (Rat [17]): 1.51 µg/mL
- concentration in plasma (Rat [18]): 1.55 µg/mL
- concentration in plasma (Rat [19]): 7.21 µg/mL
- concentration in plasma (Rat [20]): 0.606 µg/mL
- concentration in plasma (Rat [21]): 1.1 µg/mL
- concentration in plasma (Rat [22]): 0.0741 µg/mL
- concentration in plasma (Rat [23]): 0.405 µg/mL
- concentration in plasma (Rat [24]): 13.8 µg/mL
- concentration in plasma (Rat [25]): 0.159 µg/mL

Structure (SMILES): O=C(O)C(F)(F)C(F)(F)C(F)(F)C(F)(F)C(F)(F)F [Perfluorohexanoic Acid]
- concentration in plasma (Rat [26]): 3100 ng/mL
- concentration in plasma (Rat [27]): 113 ng/mL
- concentration in kidney (Rat [28]): 76600 ng/g
- concentration in brain (Rat [29]): 1460 ng/g
- concentration in plasma (Rat [30]): 8680 ng/mL
- concentration in plasma (Rat [31]): 152 µg/mL
- concentration in brain (Rat [32]): 1270 ng/g
- concentration in kidney (Rat [33]): 99400 ng/g

Structure (SMILES): O=S(=O)([O-])C(F)(F)C(F)(F)C(F)(F)C(F)(F)C(F)(F)C(F)(F)C(F)(F)C(F)(F)F [Perfluorooctane Sulfonate]
- concentration in liver (Rat [34]): 12000 ng/g
- concentration in liver (Rat [35]): 164000 ng/g
- concentration in plasma (Rat [36]; 1 h): 4240 ng/mL
- concentration in plasma (Rat [36]; 192 h): 4100 ng/mL
- concentration in plasma (Rat [36]; 2376 h): 105 ng/mL
- concentration in brain (Rat [37]): 660 ng/g
- concentration in kidney (Rat [38]): 10200 ng/g
- concentration in liver (Rat [39]): 164000 ng/g
- concentration in liver (Rat [40]): 3090 ng/g

— EPA's CvTdb concentration-time database
